Each molecule was assayed against T1, purified STEP46 enzyme (Homo sapiens, UniProt P54829) (assay: STEP46 biochemical assay (DiFMUP fluorescence phosphatase assay)). Conditions: DiFMUP 10 μM, read-out: STEP IC50.
T1 sequence (P54829 197-565 limits assumed): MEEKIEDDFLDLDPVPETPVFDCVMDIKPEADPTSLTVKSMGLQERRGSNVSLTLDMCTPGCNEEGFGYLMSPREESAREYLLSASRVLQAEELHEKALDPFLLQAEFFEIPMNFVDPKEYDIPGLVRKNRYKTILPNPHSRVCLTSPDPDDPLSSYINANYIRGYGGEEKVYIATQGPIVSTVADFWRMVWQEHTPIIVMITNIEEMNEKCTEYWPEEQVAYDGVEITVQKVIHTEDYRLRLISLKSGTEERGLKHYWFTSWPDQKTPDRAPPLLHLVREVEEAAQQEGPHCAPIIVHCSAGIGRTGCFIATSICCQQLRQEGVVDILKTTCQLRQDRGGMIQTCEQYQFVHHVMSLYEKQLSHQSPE
Experimental: Serial dilutions of compounds were performed in 100% DMSO and 1 uL of compounds were dispensed into 384-well black polystyrene plates (Corning, N.Y.). Compounds were incubated with 24 uL of buffer containing 50 mM Hepes, 1 mM DTT, 0.02% Brij35, 1 ng/well purified STEP46 enzyme for […] at room temperature. The reaction was initiated by addition of 25 uL of DiFMUP (6,8-difluoro-4-methylumbelliferyl phosphate) (InVitrogen, CA) with a final concentration of 10 μM and incubated at 27° C. for 90 mM Final DMSO concentration is 2%. Plates were read with florescence intensity at excitation/emission of 360/460 nm using a PheraStar plate reader (BMG Labtech, NC).
Data were expressed as percentage (%) inhibition of enzyme activity. 0% inhibition is defined as the RFUs (relative fluorescence units) in the absence of compounds and 100% inhibition is defined as RFUs in the absence of STEP46 enzyme. IC50 values of compounds with inhibitory activity against STEP46 were determined by GraphPad Prism (version 4.03) using four parameter logistic equation. Some compounds act as activators. For compounds showing STEP46 enzymatic activation, data are represented as percentage of inhibition but with negative values at three representative concentrations (25, 50 and 100 uM).

Q: How did the IC50 turn out when `Fc1cccc(-c2ccc3nc(-c4cccnc4)nc(N4CCc5cc(Cl)ccc54)c3c2)c1F` [Compound 75] was run?
A: 1 to 10 µM

Q: How did the IC50 turn out when `CNc1nc(-c2cccnc2)nc2c(F)c(-c3cc(F)cc(F)c3F)ccc12` [Compound 523] was run?
A: < 1 µM

Q: With `CNc1nc(-c2cccnc2)nc2c(OC)cc(-c3ccccc3OC)cc12` [Compound 207] as the molecule, how does the IC50 read?
A: 1 to 10 µM

Q: For `COc1ccc2nc(-c3cccnc3)nc(Nc3cccc(F)n3)c2c1` [Compound 32], which IC50 is on record?
A: > 10 µM

Q: With `CNc1nc(-c2cccnc2)nc2cc(F)c(-c3cccc(C#N)c3)cc12` [Compound 589] as the molecule, how does the IC50 read?
A: 1 to 10 µM

Q: How did the IC50 turn out when `CNc1nc(-c2cccnc2)nc2ccc(-c3cccc4[nH]c(=O)oc34)cc12` [Compound 475] was run?
A: < 1 µM

Q: `CNc1nc(-c2cccnc2)nc2cc(-c3cccc(C#N)c3)c(F)cc12` [Compound 556] was tested. Which IC50 did it give?
A: 1 to 10 µM

Q: `CNc1nc(-c2cccnc2)nc2ccc(-c3ccc4c(c3)C(=O)NCCO4)cc12` [Compound 479] was tested. Which IC50 did it give?
A: 1 to 10 µM

Q: Which IC50 does the source give for `CNc1nc(-c2cccnc2)nc2ccc(-c3ccc4c(c3)N(C)C(=O)CO4)cc12` [Compound 467] here?
A: 1 to 10 µM

Q: For `CNc1nc(-c2cccnc2)nc2cc(C(F)(F)F)c(-c3ccc(F)cc3F)cc12` [Compound 198], which IC50 is on record?
A: > 10 µM

Q: How did the IC50 turn out when `CNc1nc(-c2cccnc2)nc2cc(-c3ccc(C#N)cc3)c(F)cc12` [Compound 559] was run?
A: 1 to 10 µM

Q: For `CNc1nc(-c2cccnc2)nc2ccc(-c3ccc4c(c3)OCCCO4)cc12` [Compound 170], which IC50 is on record?
A: > 10 µM

Q: How did the IC50 turn out when `CNc1nc(-c2cccnc2)nc2cc(-c3c(F)cccc3F)ccc12` [Compound 455] was run?
A: 1 to 10 µM

Q: Which IC50 does the source give for `CNc1nc(-c2cccnc2)nc2cc(-c3cc(C)oc3C)ccc12` [Compound 276] here?
A: > 10 µM

Q: For `CC(Nc1nc(-c2cccnc2)nc2ccc(-c3cccc(F)c3)cc12)c1ccccc1` (stereo not shown) [Compound 604], which IC50 is on record?
A: 1 to 10 µM

Q: For `CNc1nc(-c2cccnc2)nc2c(-c3cccc(F)c3)cccc12` [Compound 274], which IC50 is on record?
A: 1 to 10 µM

Q: For `O=[N+]([O-])c1ccc2c(c1)CCN2c1nc(-c2cccnc2)nc2cc(-c3cccnc3)ccc12` [Compound 106], which IC50 is on record?
A: < 1 µM

Q: How did the IC50 turn out when `COc1ccc2c(N3CCc4cc(Cl)ccc43)nc(-c3cccnc3)nc2c1` [Compound 12] was run?
A: 1 to 10 µM

Q: `Cc1c(-c2cccc(C#N)c2)ccc2c(N(C)C)nc(-c3cccnc3)nc12` [Compound 290] was tested. Which IC50 did it give?
A: > 10 µM

Q: How did the IC50 turn out when `c1ccc(CCNc2nc(-c3cccnc3)nc3ccc(-c4cc5ccccc5o4)cc23)nc1` [Compound 345] was run?
A: 1 to 10 µM

Q: How did the IC50 turn out when `CCOc1cc(F)cc(-c2ccc3c(NC)nc(-c4cccnc4)nc3c2)c1` [Compound 145] was run?
A: 1 to 10 µM

Q: For `CNc1nc(-c2cccnc2)nc2cc(-c3cccc(F)c3F)c(F)cc12` [Compound 557], which IC50 is on record?
A: 1 to 10 µM

Q: `CNc1nc(-c2cccnc2)nc2c(F)cc(-c3ccc(C#N)cc3)cc12` [Compound 571] was tested. Which IC50 did it give?
A: 1 to 10 µM

Q: Which IC50 does the source give for `COc1cc(-c2ccc(F)cc2F)cc2c(N3CC(OC)C3)nc(-c3cccnc3)nc12` [Compound 741] here?
A: 1 to 10 µM

Q: For `Fc1ccccc1-c1ccc2c(N3CCc4cc(Cl)ccc43)nc(-c3cccnc3)nc2c1` [Compound 95], which IC50 is on record?
A: 1 to 10 µM

Q: How did the IC50 turn out when `CNc1nc(-c2cccnc2)nc2cc(F)c(-c3ccc(F)cc3F)cc12` [Compound 196] was run?
A: < 1 µM

Q: With `CNc1nc(-c2cccnc2)nc2c(F)c(-c3ccc(F)c(C)c3)ccc12` [Compound 541] as the molecule, how does the IC50 read?
A: 1 to 10 µM

Q: With `CNc1nc(-c2cccnc2)nc2ccc(-c3ccc(F)c(C(N)=O)c3)cc12` [Compound 183] as the molecule, how does the IC50 read?
A: 1 to 10 µM

Q: How did the IC50 turn out when `COc1ccc2nc(-c3cccnc3)nc(-n3ccc4cccnc43)c2c1` [Compound 41] was run?
A: 1 to 10 µM

Q: How did the IC50 turn out when `CNc1nc(-c2cccnc2)nc2c(OC)cc(-c3cccc(C#N)c3)cc12` [Compound 206] was run?
A: > 10 µM

Q: Which IC50 does the source give for `Cc1ccc2c(c1)CCN2c1nc(-c2cccnc2)nc2ccc(-c3ccc(F)cc3F)cc12` [Compound 73] here?
A: 1 to 10 µM

Q: Which IC50 does the source give for `Clc1ccc2nc(-c3cccnc3)nc(N3CCc4cccnc43)c2c1` [Compound 61] here?
A: 1 to 10 µM

Q: `CNc1nc(-c2cnccn2)nc2ccc(-c3cc(F)cc(F)c3)c(F)c12` [Compound 980] was tested. Which IC50 did it give?
A: 1 to 10 µM

Q: For `CNc1nc(-c2cccnc2)nc2c(F)c(-c3cccs3)ccc12` [Compound 533], which IC50 is on record?
A: 1 to 10 µM

Q: Which IC50 does the source give for `CNc1nc(-c2cccnc2)nc2c(C)c(-c3ccncc3)ccc12` [Compound 293] here?
A: 1 to 10 µM

Q: Which IC50 does the source give for `CNc1nc(-c2cccnc2)nc2c(F)cc(-c3ccccc3OC)cc12` [Compound 566] here?
A: > 10 µM

Q: With `Cc1ccc2c(c1)CCN2c1nc(-c2cccnc2)nc2cc(-c3cc(F)ccc3F)ccc12` [Compound 98] as the molecule, how does the IC50 read?
A: 1 to 10 µM

Q: Which IC50 does the source give for `CNc1nc(-c2cccnc2)nc2cc(-c3cccc(F)c3)c(F)cc12` [Compound 550] here?
A: 1 to 10 µM

Q: For `CNc1nc(-c2cccnc2)nc2c(Cl)cc(-c3cccc(F)c3F)cc12` [Compound 243], which IC50 is on record?
A: 1 to 10 µM

Q: How did the IC50 turn out when `O=[N+]([O-])c1ccc2c(c1)CCN2c1nc(-c2cccnc2)nc2ccc(-c3cccc(F)c3F)cc12` [Compound 83] was run?
A: < 1 µM

Q: Which IC50 does the source give for `CNc1nc(-c2cccnc2)nc2ccc(-c3cccc(OCCC(C)O)c3)cc12` (stereo not shown) [Compound 224] here?
A: 1 to 10 µM

Q: For `CNc1nc(-c2cccnc2)nc2ccc(-c3ccc(F)cc3F)c(OC)c12` [Compound 487], which IC50 is on record?
A: 1 to 10 µM

Q: How did the IC50 turn out when `Nc1nc(-c2cccnc2)nc2cc(-c3cc(F)c(F)c(F)c3)ccc12` [Compound 312] was run?
A: 1 to 10 µM

Q: For `CNc1nc(-c2cccnc2)nc2cc(-c3cccc(OCC(=O)N(C)C)c3)ccc12` [Compound 138], which IC50 is on record?
A: 1 to 10 µM

Q: With `c1ccc(CNc2nc(-c3cccnc3)nc3cc(-c4cc5ccccc5o4)ccc23)nc1` [Compound 347] as the molecule, how does the IC50 read?
A: 1 to 10 µM

Q: How did the IC50 turn out when `Fc1ccc(-c2ccc3nc(-c4cccnc4)nc(N4CCc5cccnc54)c3c2)cc1` [Compound 443] was run?
A: 1 to 10 µM

Q: With `Fc1ccc(CNc2nc(-c3cccnc3)nc3ccc(-c4cccc(F)c4F)cc23)cc1F` [Compound 361] as the molecule, how does the IC50 read?
A: > 10 µM

Q: `CNc1nc(-c2cccnc2)nc2ccc(-c3ccc(C(F)(F)F)cc3C(F)(F)F)cc12` [Compound 202] was tested. Which IC50 did it give?
A: > 10 µM

Q: With `CNC(=O)c1cc(-c2ccc3nc(-c4cccnc4)nc(NC)c3c2)ccc1F` [Compound 180] as the molecule, how does the IC50 read?
A: 1 to 10 µM

Q: Which IC50 does the source give for `CNc1nc(-c2cccnc2)nc2ccc(-c3ccc(CO)cc3)cc12` [Compound 173] here?
A: 1 to 10 µM

Q: For `CNc1nc(-c2cccnc2)nc2ccc(-c3cccc(CC(N)=O)c3)cc12` [Compound 166], which IC50 is on record?
A: > 10 µM

Q: `CNc1nc(-c2cccnc2)nc2cc(-c3c(F)ccc(F)c3C)ccc12` [Compound 323] was tested. Which IC50 did it give?
A: > 10 µM

Q: For `CNc1nc(-c2cccnc2)nc2cc(-c3ccc(OC)cc3F)ccc12` [Compound 218], which IC50 is on record?
A: 1 to 10 µM

Q: `Fc1ccc(F)c(-c2ccc3c(N4CCc5cc(Cl)ccc54)nc(-c4cccnc4)nc3c2)c1` [Compound 109] was tested. Which IC50 did it give?
A: 1 to 10 µM

Q: With `Fc1ccc(-c2ccc3nc(-c4cccnc4)nc(-c4nccs4)c3c2)c(F)c1` [Compound 416] as the molecule, how does the IC50 read?
A: < 1 µM

Q: For `CNc1nc(-c2ccnnc2)nc2ccc(-c3cccc(F)c3)cc12` [Compound 212], which IC50 is on record?
A: > 10 µM

Q: For `CNc1nc(-c2cccnc2OC)nc2cc(-c3cc(F)ccc3F)ccc12` [Compound 158], which IC50 is on record?
A: 1 to 10 µM

Q: For `Cc1ccc2c(c1)CCN2c1nc(-c2cccnc2)nc2ccc(-c3cccc(F)c3)cc12` [Compound 78], which IC50 is on record?
A: 1 to 10 µM

Q: With `CN(C)c1nc(-c2cccnc2)nc2cc(-c3cc(F)c(F)c(F)c3)ccc12` [Compound 313] as the molecule, how does the IC50 read?
A: 1 to 10 µM

Q: How did the IC50 turn out when `CNc1nc(-c2cccnc2)nc2cc(-c3cc(F)ccc3F)c(F)cc12` [Compound 554] was run?
A: 1 to 10 µM

Q: For `CNc1nc(-c2cccnc2)nc2cc(-c3ccc(F)c(F)c3)c(F)cc12` [Compound 558], which IC50 is on record?
A: 1 to 10 µM

Q: Which IC50 does the source give for `CNc1nc(-c2cccnc2)nc2cc(-c3cc(F)cc(OCC(=O)N(C)C)c3)ccc12` [Compound 143] here?
A: 1 to 10 µM

Q: With `CNc1nc(-c2cccnc2)nc2c(OC)cc(-c3cccc(F)c3)cc12` [Compound 253] as the molecule, how does the IC50 read?
A: 1 to 10 µM

Q: For `CNc1nc(-c2cccnc2)nc2cc(-c3ccccc3F)c(F)cc12` [Compound 552], which IC50 is on record?
A: 1 to 10 µM

Q: `CNc1nc(-c2cccnc2)nc2c(-c3cccc(C#N)c3)cccc12` [Compound 272] was tested. Which IC50 did it give?
A: < 1 µM

Q: `c1ccc(CNc2nc(-c3cccnc3)nc3ccc(-c4cc5ccccc5o4)cc23)nc1` [Compound 343] was tested. Which IC50 did it give?
A: < 1 µM

Q: For `CNc1nc(-c2cccnc2)nc2c(F)cc(-c3ccccc3C#N)cc12` [Compound 567], which IC50 is on record?
A: < 1 µM

Q: With `O=[N+]([O-])c1ccc2c(c1)CCN2c1nc(-c2cccnc2)nc2ccc(-c3ccc(F)cc3)cc12` [Compound 87] as the molecule, how does the IC50 read?
A: < 1 µM

Q: With `CNc1nc(-c2cccnc2)nc2c(F)cc(-c3ccc(OC)cc3)cc12` [Compound 573] as the molecule, how does the IC50 read?
A: 1 to 10 µM

Q: Which IC50 does the source give for `Cc1ccc2c(c1)CCN2c1nc(-c2cccnc2)nc2cc(Br)ccc12` [Compound 16] here?
A: 1 to 10 µM

Q: Which IC50 does the source give for `CNc1nc(-c2cccnc2)nc2ccc(-c3cccc(S(N)(=O)=O)c3)cc12` [Compound 235] here?
A: > 10 µM

Q: With `Fc1ccc(-c2ccc3nc(-c4cccnc4)nc(-c4cncs4)c3c2)c(F)c1` [Compound 417] as the molecule, how does the IC50 read?
A: < 1 µM

Q: `CNc1nc(-c2cccnc2)nc2cc(-c3cc(F)ccc3OC)ccc12` [Compound 316] was tested. Which IC50 did it give?
A: 1 to 10 µM
